Assay results published in patent US8151795B2, “Method of demand valve oxygen therapy for rapid abort of cluster headache” (Linde AG, priority 2008, dated 2012).
Where “and” joins values, the source holds several entries; their conditions need not be identical. Equal values may be shown once. Read-outs that look alike come from different tables or passages of the source.

Columns and labels:
[1] = test system: cluster headache patients; details: nasal spray at doses of 5 and 10 mg; cited from earlier work
[2] = test system: cerebral blood flow; details: 5% carbon dioxide; young men; cited from earlier work
[3] = test system: pulmonary ventilation rate; details: increase of about 0.25% alveolar carbon dioxide; cited from earlier work
[4] = test system: patients with episodic and chronic cluster headache; details: episodic and chronic disease; cited from earlier work
[5] = test system: normal human subjects; details: cited from earlier work
[6] = test system: cluster headache patients; details: cited from earlier work
[7] = test system: cerebral blood flow; details: cited from earlier work
[8] = test system: Extracerebral Flow Index; details: cluster headache patients during headache interval, during 100% oxygen inhalation; cited from earlier work
[9] = test system: cluster headache sufferers
Source text: It is critical that the cluster headache sufferer fully inhale and exhale as completely as possible during the first three phases of the method of the present invention, in order to insure more complete ventilation of the lungs during hyperventilation and the expelling of carbon dioxide, a vasodilative agent, as rapidly as possible. The four phases of the invented demand valve method are herein described in more detail.
Taking three to four very deep breaths of oxygen from the demand valve, exhaling and inhaling as completely as possible with each breath, starts the process of clearing the residual Nitrogen from the lungs and also starts the shift into hyperoxia, which can be defined as having more oxygen in the blood than normal.
In Phase 3, slow hyperventilation, which has a recommended respiration rate of 30 breaths per minute, the purpose is to maintain the benefits of hyperventilation, respiratory alkalosis, hypocapnia, and hyperoxia, but at a more comfortable respiration rate. […] The cluster headache sufferer should maintain this respiration rate until the cluster headache pain has clearly subsided.

[10] = test system: cluster headache patients; details: cited from earlier work; for headache response: Rozen 2004; for subjects in whom oxygen is effective: standard of care continuous flow
[11] = test system: cluster headache patients; details: cited from earlier work; remark: listed apart in the source
[12] = after 10 minutes of oxygen inhalation

## CN(C)CCc1c[nH]c2ccc(C[C@H]3COC(=O)N3)cc12 [Zolmitriptan]
[1]
  acute treatment of cluster headache: effective and tolerable

## O=C=O [carbon dioxide]
[2]
  increase in CBF: 59%
[3]
  increase in pulmonary ventilation rate: 100%

## O=O [hyperbaric oxygen]
[4]
  prophylactic effect: no significant prophylactic effect

## O=O [oxygen]
[5]; Kafer 1971, within 3 hours of exposure
  toxic effects: no toxic effects
[5]; Sackner 1975, atmospheric pressure
  duration for which exposure is safe: less than 6 hours
[5]; Sackner 1975
  earliest occurrence of substernal stress after start of oxygen breathing: 4 h
[6]; [12]
  average decrease of superficial temporal artery pulse amplitude: 30%
  patients with decreased pulse amplitude of superficial temporal artery, symptomatic side: 15 of the 16
[6]; after 15 minutes, 16 patients studied
  headache subsiding almost completely: 12 patients
[6]; after breathing 100% oxygen for 10 minutes
  patients reporting at least some relief: 15 of 16
[7]; Floyd 2003, transition from air to 100% O2 at 1.0 ATA, MRI
  decrease in CBF: 33%
[7]; Kawamura 1991, after 100% oxygen for five minutes, five cluster headache patients
  CBF values for temporal cortex and basal ganglia: significantly decreased below normal values
[7]; Kety, healthy young male volunteers
  decrease of cerebral blood flow: approximately 13%
[7]; Sakai 1979, normal volunteers of both sexes
  reduction of Fg (CBF in gray brain matter): 9.4+/−5.4%
[8]
  EFI values: 7+/−2%
[9]; Kip pain level high (7-8) and abort times less than 15 min
  re-attacks (attack 15 to 45 minutes after successful abort), incidence per aborts: 1 out of 4
[9]; demand valve method, chronic sufferers over 50, attacks of Kip 8 pain level or below
  success rate of aborting cluster headache: 95% and > 95%
[9]; demand valve method, same pain level
  reduction of time for complete abort vs non-rebreathing mask with 15 l/min continuous flow oxygen: ~50%
[9]; demand valve method, the one Kip 9 cluster headache recorded
  time to abort: 25 min
[9]; many months of continuous use, other than dry mouth
  adverse effects or symptoms: no adverse effects or symptoms encountered
[9]; total of 20 minutes of continuous oxygen inhalation
  re-attacks after extending oxygen use after abort: largely or totally eliminated
[10]; 7 to 12 l/min continuous flow, non-rebreathing mask
  time to being effective: ≤ 5 min
[10]; Ekbom 2002, Matharu 2003
  adverse effects of oxygen for cluster headache: no established adverse effects
[10]; Kudrow 1981, cessation of pain within 15 minutes for at least 7 of 10 attacks
  patients obtaining significant relief from cluster pain: 75%
[10]; Kudrow 1981, chronic patients over 49 years of age
  least benefit: 57%
[10]; Kudrow 1981, episodic patients under 50 years of age
  greatest benefit: 92.9%
[10]; 7-10 l/min flow rate
  headache response: no change in headache intensity
[10]; higher flow rate (15 l/min)
  headache response: complete or near-complete headache alleviation
[10]; chronic patients, standard of care oxygen therapy
  patients having success: 68.4%
[10]; episodic patients, standard of care oxygen therapy
  patients responding favorably: 78%
[10]; non-rebreathing mask
  subjects in whom oxygen is effective: ~70%
[10]; non-rebreathing mask, listed as 100% oxygen
  subjects in whom oxygen is effective: 70%
[10]; standard of care method (Matharu 2003)
  patients noting oxygen simply delays the attack rather than aborting it: up to 25%

## CNS(=O)(=O)Cc1ccc2[nH]cc(CCN(C)C)c2c1 [sumatriptan]
[11]; 6 mg injected subcutaneously, double blind placebo controlled trials
  patients in whom effective (pain free in 20 minutes): about 75%
[11]; sumatriptan injection (Rozen 2002)
  lower effectiveness in chronic than in episodic cluster: 8%
